Patent publication US6376666B1 (Nauchno-Issledovatelsky Institut Farmakologii Rossiiskoi …, priority 1994, dated 2002)
Structures can show the parent of a compound that is named as a salt.

Assays:
[1] = test system: Balb/c mice; assay: open-field test, Balb/c mice (passive type of emotional-stress reaction); format: in vivo; conditions: i.p., screening
How it was run: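 Male mice, 20-22 g, dosed i.p. in water 30 min before a 3-min open-field test after 1 min in darkness; peripheral, central, rearing and total activity plus defecations recorded; Student t-test. Anxiolysis read as Balb/c activation, sedation as C57B1/6 inhibition.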

[2] = after i.v. injection
[3] = test system: aconitine arrhythmia; assay: animal or person; format: in vivo, rats; conditions: for LD50/ED50 (antiarrhythmic index): LD50 i.v. / ED50 aconitine arrhythmia; for ED50: Rattus norvegicus, iv, read-out: Aconitine arrhythmia ED50
Protocol: Aconitine arrhythmia. The aconitine arrhythmia was induced in concious rats weighing 180-200 g by the injection in tail vein of the aconitine sulfate solution at dose range of […]. […] The tested compounds were administered i.v. 3 min prior aconitine injection. The ED50 value was calculated according to Litchfield's method.

[4] = test system: calcium chloride arrhythmia; assay: calcium chloride arrhythmia in concious rats; format: in vivo; conditions: Rattus norvegicus, iv, concious rats, given 2 min prior calcium chloride 250-300 mg/kg i.v.; read-out: Calcium chloride arrhythmia ED50 (mean effective dose)
Protocol: In these experiments the outbred concious rats 180-200 g of weight were injected with 10% solution of calcium chloride in tail vein at dose range of 250-300 mg/kg.

[5] = test system: adrenaline arrhythmia; assay: adrenaline arrhythmia in concious rabbits; conditions: given 2 min before arrhythmogenic dose of adrenaline
Protocol: Adrenaline arrhythmia. The 0,1% solution of adrenaline hydrochloride was injected to the marginal ear's vein of rabbit weighing 2,5-3,0 kg at dose ranging 120-150 mcg/kg which induced cardiac rhythm disturbances of two types.
The tested compound was injected in 3 ml of distilled water 30 min after determination of arrhythmogenic dose of adrenaline and the ECG was recorded in 2nd standard lead. 2 min after administration of tested compound the arrhythmogenic dose of adrenaline was injected.

[6] = in vivo; conditions: iv
[7] = test system: cats; assay: hemodynamics and activity of intact heart in cats under anesthesia; format: in vivo; conditions: for effect on heart rate, in words: VIII 1,0, IX 0,5 and 1,0, XX 1,0 and 2,0 mg/kg, XXIII 1.0, verapamil 0.5 mg/kg
Protocol: The effects of compounds on the hemodynamics and activity of intact heart were studied in cats under anesthesia. The experiments were carried out under conditions of open chest. The phase curve of aortic blood flow was the main index of cardiac activity. The compounds were administered i.v. in physiological solution. The t-Student' test was used to estimate the statistical significance.

[8] = test system: ventricular disturbances of heart rhythm; assay: arrhythmia in concious dogs according to Harris; format: in vivo; conditions: for % ectopic contractions, change vs basal level / Heart rate, change vs basal level: concious dogs, 2 mg/kg i.v.
Protocol: The arrhythmia in concious dogs according to Harris. The experiments were conducted in mongrel dogs of either sex weighing 9-14 kg. Under anesthesia (40 mg/kg of nembutal i.v.) and artificial respiration the two-step occlusion of the left anterior descending coronary artery was performed. The constant ECG disturbances of the heart rhythm were recorded after 24 hours. […] T-Student' test was used for statistical calculation.

[9] = test system: ischemized myocardium of cats; assay: ST-segment elevation during 5 min occlusions of coronary artery (acute coronary deficiency); format: in vivo; conditions: cats, bolus injection
Protocol: These experiments were conducted in cats weighing 2,5-4,0 kg under anasthesia by i.v. injection of nembutal (40 mg/kg) in open chest conditions. Epicardium electrogram in 3-4 leads was registered in “Mingograph-81”. The value of mean elevation of ST-segment during 5 min occlusions of anterior left descending coronary artery with 15 min reperfusions between them was the main index of intensity of reversible ischemized damage of myocardium.
The statistical calculation was carried out with non-parametric Wilcocson method for associated variants.

[10] = test system: ischemized myocardium of cats; assay: contractile and pump functions and ATP level of ischemized myocardium (20-40 min occlusion, reperfusion); format: in vivo
Protocol: The effects of this compound on contractile and pump functions of ischemized myocardium were studied in cats weighing 3,0-4,5 kg under anesthesia with nembutal (40 mg/kg). […] The phase curve of blood flow in ascending part of the aortic arch was recorded with electromagnetic blood flowmeter MFV-1200 (“Nihon-Kohden”, Japan). Hemodynamics, heart activity values and the number of arrhythmia were calculated. In the experiments with 40 min ischemia immediately after 60 min the intact and ischemized zones of left ventricle were dissected and freezed in liquid nitrogen. ATP level was measured using hexokinase method in these zones. 4 series of experiments (2-control and 2-basic) were conducted in 12 cats in each. For statistical calculation the t-Student and Fisher's precision test were used.

[11] = 0.5 mg/kg i.v., 0.25 min after injection
[12] = cats, 0.5 mg/kg i.v., after 2 min
[13] = cats, 0.5 mg/kg i.v., after 5 min
[14] = cats, 0.5 mg/kg i.v., after 10 min
[15] = cats, 0.5 mg/kg i.v., after 20 min
[16] = cats, 0.5 mg/kg i.v., after 30 min
[17] = 1.0 mg/kg i.v., 0.25 min after injection
[18] = cats, 1.0 mg/kg i.v., after 2 min
[19] = cats, 1.0 mg/kg i.v., after 5 min
[20] = cats, 1.0 mg/kg i.v., after 10 min
[21] = cats, 1.0 mg/kg i.v., after 20 min
[22] = cats, 1.0 mg/kg i.v., after 30 min

Cc1cc2nc(SCCN3CCCC3)[nH]c2cc1C (as salt: hydrochloride) (hydrate or solvate) [XIII, 2-[2-(Pyrrolidino)ethylthio]-5,6-dimethylbenzimidazole]
melting point: 115 to 116 °C (dec.)

CCOc1ccc2nc(SCCN3CCCC3)[nH]c2c1 (as salt: hydrochloride) [Compound X, 2-[2-(Pyrrolidino)ethylthio]-5-ethoxybenzimidazole]
melting point: 127 to 130 °C (dec.)

C=CCSc1nc2cc(C)c(C)cc2[nH]1 (as salt: hydrochloride) [III, 2-Allylthio-5,6-dimethylbenzimidazole]
melting point: 119 to 120 °C

C=CCSc1nc2ccc(OCC)cc2[nH]1 (as salt: hydrochloride) [IV, 2-Allylthio-5-ethoxybenzimidazole]
melting point: 252 to 254 °C (dec.)

CCN(CC)CCSc1nc2ccccc2n1CCc1ccccc1 (as salt: hydrochloride) [XXI, 1-(β-Phenylethyl)-2-[2-(diethylamino)ethylthio]benzimidazole]
melting point: 129 to 130 °C

CCSc1nc2cc(C)c(C)cc2[nH]1 [Compound I, 2-Ethylthio-5,6-dimethylbenzimidazole]
melting point: 123 to 124 °C
effect on the behavior (locomotor activity) of Balb/c mice in open-field test, in words [1]: neither activatory nor inhibitory effects

CCOC(=O)Nc1ccc2c(c1)N(C(=O)CCN1CCOCC1)c1ccccc1S2 [Etmosin]
Acute toxicity LD50 [2]: 16.4 mg/kg
LD50/ED50 (antiarrhythmic index) [3]: 58.6
Aconitine arrhythmia ED50 ([3]; concious rats, i.v. 3 min prior aconitine): 0.28 mg/kg

CCCSc1nc2cc(C)c(C)cc2[nH]1 [II, 2-Propylthio-5,6-dimethylbenzimidazole]
melting point: 122 to 123 °C

CCN(CC)CC(=O)Nc1c(C)cccc1C [Lidocaine, lidocaine]
ED50 [4]: 7.5 mg/kg
ED50 [3]: 7.8 mg/kg
Adrenaline arrhythmia. Range of active doses [5]: 5.0 to 8.0 mg/kg

CCN(CC)CCNC(=O)c1ccc(N)cc1 [Novocainamide, novocainamide, reference compound]
ED50 [4]: 50 mg/kg
LD50/ED50 (antiarrhythmic index) [3]: 2.7
ED50 [3]: 41 mg/kg
LD50 [6]: 110 mg/kg

CC(C)NCC(O)COc1cccc2ccccc12 (centres unmarked) [Propranolol, propranolol, reference compound]
ED50 [4]: 0.8 mg/kg
Adrenaline arrhythmia. Range of active doses [5]: 0.3 to 1.0 mg/kg

COc1ccc(CCN(C)CCCC(C#N)(c2ccc(OC)c(OC)c2)C(C)C)cc1OC (centres unmarked) [Verapamil, verapamil, reference compound]
ED50 [4]: 1.1 mg/kg
Heart rate, change from basal level [7, 11]: −13.7 ± 1.7 %
Mean blood flow accelaration, change from basal level [7, 11]: −32.5 ± 5.7 %
Mean blood pressure, change from basal level [7, 11]: −40.4 ± 7.0 %
effect on heart rate, in words ([7]; cats i.v.): induced the bradycardia
Heart rate, change from basal level [7, 12]: −11.8 ± 2.0 %
Mean blood flow accelaration (aortic), change from basal level [7, 12]: −15.5 ± 2.4 %
Mean blood pressure, change from basal level [7, 12]: −22.7 ± 8.1%
Heart rate, change from basal level [7, 13]: −12.3 ± 3.0 %
Mean blood flow accelaration (aortic), change from basal level [7, 13]: −8.1 ± 3.0 %
Mean blood pressure, change from basal level [7, 13]: −8.7 ± 6.3%
Heart rate, change from basal level [7, 14]: −8.1 ± 2.0 %
Mean blood flow accelaration (aortic), change from basal level [7, 14]: −9.9 ± 2.5 %
Mean blood pressure, change from basal level [7, 14]: −2.4 ± 2.6%
Heart rate, change from basal level [7, 15]: −5.4 ± 2.0 %
Mean blood flow accelaration (aortic), change from basal level [7, 15]: −8.7 ± 3.0%
Mean blood pressure, change from basal level [7, 15]: −8.5 ± 6.6%
Heart rate, change from basal level [7, 16]: −4.6 ± 3.4%
Mean blood flow accelaration (aortic), change from basal level [7, 16]: −7.0 ± 4.2%
Mean blood pressure, change from basal level [7, 16]: −11.6 ± 7.0%
Adrenaline arrhythmia. Range of active doses [5]: 0.3 to 1.0 mg/kg

CCN(CC)CCSc1nc2cc(C)c(C)cc2[nH]1.Cl.Cl [XXIII, dihydroxychloride 2-[2-(diethylamino)ethylthio]-5,6-dimethylbenzimidazole, reference compound]
Cardiac volume, change from basal level [7, 17]: +3.6 ± 3.5%
Heart rate, change from basal level [7, 17]: −14.6 ± 1.2 %
Mean blood flow accelaration, change from basal level [7, 17]: +2.1 ± 4.9%
Mean blood pressure, change from basal level [7, 17]: −13.9 ± 2.9 %
effect on contractile function of heart, in words ([7]; cats i.v., same doses as bradycardia): inhibition of contractile function of heart
effect on heart rate, in words ([7]; cats i.v.): expressed and long bradycardia
Cardiac volume, change from basal level [7, 18]: −3.6 ± 2.0%
Heart rate, change from basal level [7, 18]: −11.7 ± 1.3 %
Mean blood flow accelaration (aortic), change from basal level [7, 18]: −4.9 ± 4.7%
Mean blood pressure, change from basal level [7, 18]: −0.2 ± 4.0%
Cardiac volume, change from basal level [7, 19]: −0.6 ± 2.3%
Heart rate, change from basal level [7, 19]: −7.9 ± 1.6 %
Mean blood flow accelaration (aortic), change from basal level [7, 19]: −1.0 ± 5.0%
Mean blood pressure, change from basal level [7, 19]: +3.4 ± 2.5%
Cardiac volume, change from basal level [7, 20]: −0.7 ± 3.6%
Heart rate, change from basal level [7, 20]: −5.1 ± 1.2 %
Mean blood flow accelaration (aortic), change from basal level [7, 20]: +8.1 ± 3.0 %
Mean blood pressure, change from basal level [7, 20]: +3.8 ± 3.2%
Cardiac volume, change from basal level [7, 21]: −4.2 ± 2.4%
Heart rate, change from basal level [7, 21]: −3.8 ± 1.5 %
Mean blood flow accelaration (aortic), change from basal level [7, 21]: +4.3 ± 2.7%
Mean blood pressure, change from basal level [7, 21]: +2.8 ± 2.8%
Cardiac volume, change from basal level [7, 22]: −4.5 ± 3.5%
Heart rate, change from basal level [7, 22]: −4.1 ± 1.0 %
Mean blood flow accelaration (aortic), change from basal level [7, 22]: −2.4 ± 3.4%
Mean blood pressure, change from basal level [7, 22]: +2.9 ± 3.2%
% ectopic contractions, change vs basal level ([8]; after 1 min): −57.4 ± 17.6 %
Heart rate, change vs basal level ([8]; after 1 min): −19.0 ± 2.5 beats/min
% ectopic contractions, change vs basal level ([8]; after 3 min): −66.2 ± 18.1 %
% ectopic contractions, change vs basal level ([8]; after 5 min): −54.6 ± 16.8 %
Heart rate, change vs basal level ([8]; after 5 min): −30.4 ± 4.5 beats/min
% ectopic contractions, change vs basal level ([8]; after 10 min): −22.6 ± 8.9 %
% ectopic contractions, change vs basal level ([8]; after 15 min): −24.8 ± 11.1 %
Heart rate, change vs basal level ([8]; after 15 min): −29.0 ± 5.5 beats/min
% ectopic contractions, change vs basal level ([8]; after 30 min): −8.8 ± 4.7%
Heart rate, change vs basal level ([8]; after 30 min): −14.0 ± 4.8 beats/min
% ectopic contractions, change vs basal level ([8]; after 60 min): −5.2 ± 2.6%
Heart rate, change vs basal level ([8]; after 60 min): −12.0 ± 5.5 beats/min
duration of antiarrhythmic effect ([8]; concious dogs, 2,0 mg/kg i.v.): shorter
duration of effect on ST-segment elevation after bolus injection, in words [9]: very short
effect on inhibition of contractile function of myocardium induced by ischemic damage, in words ([10]; 20 min occlusion, 30 min reperfusion, 1,0 mg/kg bolus +50 mcg/kg/min i.v. during 30 min): observable only during occlusion period and first 10 min of reperfusion
effect on ATP level in ischemized myocardium, in words ([10]; 40 min occlusion, 60 min reperfusion, hexokinase method): did not change the ATP level
